# Tests used:
# Assay in all cases: relative viability (nuclei count vs DMSO), 5 days (fraction); higher = more cells survive
# [1] = tested on: ABC-1
# In short: (§1)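 Five library-drug doses in √10 steps were combined with a fixed anchor-drug dose, or a single drug was given alone, by pin tool to lung cancer cell lines in 1536-well plates the day after seeding. Nuclei were stained and counted after 5 days. Relative viability is the nuclei count in treated wells over that in vehicle wells, taken as the median of duplicate plates.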
# [2] = tested on: CAL-12T
# In short: as §1
# [3] = tested on: COR-L23
# In short: as §1
# [4] = tested on: EKVX
# In short: as §1
# [5] = tested on: H3255
# In short: as §1
# [6] = tested on: HCC-15
# In short: as §1
# [7] = tested on: HCC-827
# In short: as §1
# [8] = tested on: LK-2
# In short: as §1
# [9] = tested on: NCI-H1355
# In short: as §1
# [10] = tested on: NCI-H1437
# In short: as §1
# [11] = tested on: NCI-H1563
# In short: as §1
# [12] = tested on: NCI-H1650
# In short: as §1
# [13] = tested on: NCI-H1651
# In short: as §1
# [14] = tested on: NCI-H1734
# In short: as §1
# [15] = tested on: NCI-H2228
# In short: as §1
# [16] = tested on: NCI-H2405
# In short: as §1
# [17] = tested on: NCI-H322M
# In short: as §1
# [18] = tested on: NCI-H520
# In short: as §1
# [19] = tested on: NCI-H661
# In short: as §1
# [20] = tested on: PC-14
# In short: as §1
# [21] = tested on: PC-3 [JPC-3]
# In short: as §1
# [22] = tested on: RERF-LC-KJ
# In short: as §1
# [23] = tested on: SK-MES-1
# In short: as §1
# [24] = tested on: SW 1573
# In short: as §1
compound,measurement,setting,value
COc1cc(N2CCC(C(N)=O)CC2)ccc1Nc1nc(N)c(Cl)c(Nc2ccccc2S(=O)(=O)C(C)C)n1 [HG-5-88-01] + COc1cccc2cc(-c3nc([C@H]4CC[C@H](C(=O)O)CC4)n4ncnc(N)c34)[nH]c12 [OSI-027] (partner 0.5 µM),relative viability,[1]; first compound 0.04 µM,0.468
same,relative viability,[1]; first compound 0.1265 µM,0.428
same,relative viability,[1]; first compound 0.4 µM,0.399
same,relative viability,[1]; first compound 1.265 µM,0.348
same,relative viability,[1]; first compound 4 µM,0.293
same,relative viability,[2]; first compound 0.04 µM,0.491
same,relative viability,[2]; first compound 0.1265 µM,0.672
same,relative viability,[2]; first compound 0.4 µM,0.612
same,relative viability,[2]; first compound 1.265 µM,0.208
same,relative viability,[2]; first compound 4 µM,0.173
same,relative viability,[3]; first compound 0.04 µM,0.772
same,relative viability,[3]; first compound 0.1265 µM,0.79
same,relative viability,[3]; first compound 0.4 µM,0.646
same,relative viability,[3]; first compound 1.265 µM,0.55
same,relative viability,[3]; first compound 4 µM,0.505
same,relative viability,[4]; first compound 0.04 µM,0.714
same,relative viability,[4]; first compound 0.1265 µM,0.719
same,relative viability,[4]; first compound 0.4 µM,0.724
same,relative viability,[4]; first compound 4 µM,0.535
same,relative viability,[5]; first compound 0.04 µM,0.558
same,relative viability,[5]; first compound 0.1265 µM,0.538
same,relative viability,[5]; first compound 0.4 µM,0.643
same,relative viability,[5]; first compound 4 µM,0.432
same,relative viability,[6]; first compound 0.04 µM,0.683
same,relative viability,[6]; first compound 0.1265 µM,0.8
same,relative viability,[6]; first compound 0.4 µM,0.539
same,relative viability,[6]; first compound 1.265 µM,0.547
same,relative viability,[6]; first compound 4 µM,0.326
same,relative viability,[7]; first compound 0.04 µM,0.819
same,relative viability,[7]; first compound 0.1265 µM,0.89
same,relative viability,[7]; first compound 0.4 µM,0.8
same,relative viability,[7]; first compound 1.265 µM,0.564
same,relative viability,[7]; first compound 4 µM,0.406
same,relative viability,[8]; first compound 0.04 µM,0.173
same,relative viability,[8]; first compound 0.1265 µM,0.189
same,relative viability,[8]; first compound 0.4 µM,0.15
same,relative viability,[8]; first compound 1.265 µM,0.173
same,relative viability,[8]; first compound 4 µM,0.175
same,relative viability,[9]; first compound 0.04 µM,0.341
same,relative viability,[9]; first compound 0.1265 µM,0.419
same,relative viability,[9]; first compound 0.4 µM,0.3
same,relative viability,[9]; first compound 1.265 µM,0.253
same,relative viability,[9]; first compound 4 µM,0.237
same,relative viability,[10]; first compound 0.04 µM,0.836
same,relative viability,[10]; first compound 0.1265 µM,0.92
same,relative viability,[10]; first compound 0.4 µM,0.887
same,relative viability,[10]; first compound 1.265 µM,0.735
same,relative viability,[10]; first compound 4 µM,0.83
same,relative viability,[11]; first compound 0.04 µM,0.715
same,relative viability,[11]; first compound 0.1265 µM,0.754
same,relative viability,[11]; first compound 0.4 µM,0.709
same,relative viability,[11]; first compound 1.265 µM,0.638
same,relative viability,[11]; first compound 4 µM,0.573
same,relative viability,[12]; first compound 0.04 µM,0.603
same,relative viability,[12]; first compound 0.1265 µM,0.657
same,relative viability,[12]; first compound 0.4 µM,0.399
same,relative viability,[12]; first compound 1.265 µM,0.32
same,relative viability,[12]; first compound 4 µM,0.265
same,relative viability,[13]; first compound 0.04 µM,0.748
same,relative viability,[13]; first compound 0.1265 µM,0.696
same,relative viability,[13]; first compound 0.4 µM,0.605
same,relative viability,[13]; first compound 1.265 µM,0.627
same,relative viability,[13]; first compound 4 µM,0.58
same,relative viability,[14]; first compound 0.04 µM,0.59
same,relative viability,[14]; first compound 0.1265 µM,0.615
same,relative viability,[14]; first compound 0.4 µM,0.394
same,relative viability,[14]; first compound 1.265 µM,0.399
same,relative viability,[14]; first compound 4 µM,0.386
same,relative viability,[15]; first compound 0.04 µM,0.241
same,relative viability,[15]; first compound 0.1265 µM,0.148
same,relative viability,[15]; first compound 0.4 µM,0.181
same,relative viability,[15]; first compound 1.265 µM,0.169
same,relative viability,[15]; first compound 4 µM,0.172
same,relative viability,[16]; first compound 0.04 µM,0.579
same,relative viability,[16]; first compound 0.1265 µM,0.559
same,relative viability,[16]; first compound 0.4 µM,0.539
same,relative viability,[16]; first compound 1.265 µM,0.343
same,relative viability,[16]; first compound 4 µM,0.382
same,relative viability,[17]; first compound 0.04 µM,0.501
same,relative viability,[17]; first compound 0.1265 µM,0.481
same,relative viability,[17]; first compound 0.4 µM,0.448
same,relative viability,[17]; first compound 4 µM,0.293
same,relative viability,[18]; first compound 0.04 µM,0.23
same,relative viability,[18]; first compound 0.1265 µM,0.258
same,relative viability,[18]; first compound 0.4 µM,0.236
same,relative viability,[18]; first compound 1.265 µM,0.289
same,relative viability,[18]; first compound 4 µM,0.221
same,relative viability,[19]; first compound 0.04 µM,0.659
same,relative viability,[19]; first compound 0.1265 µM,0.709
same,relative viability,[19]; first compound 0.4 µM,0.684
same,relative viability,[19]; first compound 1.265 µM,0.428
same,relative viability,[19]; first compound 4 µM,0.569
same,relative viability,[20]; first compound 0.04 µM,0.849
same,relative viability,[20]; first compound 0.1265 µM,1.12
same,relative viability,[20]; first compound 0.4 µM,0.65
same,relative viability,[20]; first compound 1.265 µM,0.321
same,relative viability,[20]; first compound 4 µM,0.218
same,relative viability,[21]; first compound 0.04 µM,0.701
same,relative viability,[21]; first compound 0.1265 µM,0.759
same,relative viability,[21]; first compound 0.4 µM,0.721
same,relative viability,[21]; first compound 1.265 µM,0.543
same,relative viability,[21]; first compound 4 µM,0.577
same,relative viability,[22]; first compound 0.04 µM,0.637
same,relative viability,[22]; first compound 0.1265 µM,0.54
same,relative viability,[22]; first compound 0.4 µM,0.506
same,relative viability,[22]; first compound 1.265 µM,0.345
same,relative viability,[22]; first compound 4 µM,0.308
same,relative viability,[23]; first compound 0.04 µM,0.603
same,relative viability,[23]; first compound 0.1265 µM,0.569
same,relative viability,[23]; first compound 0.4 µM,0.492
same,relative viability,[23]; first compound 1.265 µM,0.331
same,relative viability,[23]; first compound 4 µM,0.4
same,relative viability,[24]; first compound 0.04 µM,0.624
same,relative viability,[24]; first compound 0.1265 µM,0.609
same,relative viability,[24]; first compound 0.4 µM,0.359
same,relative viability,[24]; first compound 1.265 µM,0.306
same,relative viability,[24]; first compound 4 µM,0.375
